Literature values as cited in patent US20050202001A1 (priority 2002, published 2005).

Assays:
[1] = test system: normal human neonatal melanocytes

COc1cccc(-c2cc(=O)c3ccccc3o2)c1N [PD98059]
melanogenesis [1]: stimulated melanogenesis
melanogenesis (human melanoma cells): stimulated melanogenesis
